Measured values taken from ChEMBL document CHEMBL4732071, “Discovery of selective HDAC/BRD4 dual inhibitors as epigenetic probes” (Eur J Med Chem, 2021).
Active and inactive are the calls of the source. The rule behind the calls is not given here.

Target: T1, Bromodomain-containing protein 4 (Homo sapiens, UniProt O60885)
Assay: Inhibition of BRD4 in human MV4-11 cells assessed as reduction in c-Myc expression at 10 to 1000 nM measured after 24 hrs by Western blot analysis
Assay type: cell-based
Conditions: dose 10-1000 nM

| SMILES | inhibition |
| --- | --- |
| Cn1cc(-c2ccccc2Oc2ccccc2)c2cc(C(=O)NCCCCCC(=O)NO)[nH]c2c1=O | Active |

Target: Histone deacetylase 1 (Homo sapiens, UniProt Q13547)
Sequence (Q13547 whole entry): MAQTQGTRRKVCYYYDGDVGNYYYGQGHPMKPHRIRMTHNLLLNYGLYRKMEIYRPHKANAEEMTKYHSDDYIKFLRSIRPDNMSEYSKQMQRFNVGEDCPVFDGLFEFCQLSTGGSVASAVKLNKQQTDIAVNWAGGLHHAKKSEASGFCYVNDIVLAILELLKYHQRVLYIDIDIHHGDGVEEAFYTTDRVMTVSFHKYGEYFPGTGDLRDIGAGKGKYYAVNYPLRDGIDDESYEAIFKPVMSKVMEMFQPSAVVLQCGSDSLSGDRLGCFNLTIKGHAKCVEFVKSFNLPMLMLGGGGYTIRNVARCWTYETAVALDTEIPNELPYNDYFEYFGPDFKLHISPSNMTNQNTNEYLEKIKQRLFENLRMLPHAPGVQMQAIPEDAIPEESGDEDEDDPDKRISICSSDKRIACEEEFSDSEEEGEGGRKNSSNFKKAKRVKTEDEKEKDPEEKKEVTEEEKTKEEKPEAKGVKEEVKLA
Assay: Inhibition of HDAC1 (unknown origin) by fluorescence based assay
Conditions: not given

| SMILES | IC50 [nM] |
| --- | --- |
| COc1ccc(-c2cn(C)c(=O)c3[nH]c(C(=O)NCc4ccc(C(=O)Nc5ccccc5N)cc4)cc23)cc1 | 46.8 |
| Cn1cc(-c2cccc(C(C)(C)O)c2)c2cc(C(=O)NCc3ccc(C(=O)Nc4ccccc4N)cc3)[nH]c2c1=O | 28.1 |
| Cn1cc(-c2cc(C(C)(C)O)ccc2Oc2ccc(F)cc2F)c2cc(C(=O)NCc3ccc(C(=O)NO)cc3)[nH]c2c1=O | 74 |
| Cn1cc(-c2ccc(C(F)(F)F)cc2)c2cc(C(=O)NCc3ccc(C(=O)Nc4ccccc4N)cc3)[nH]c2c1=O | 240 |
| Cn1cc(-c2ccccc2Cl)c2cc(C(=O)NCc3ccc(C(=O)Nc4ccccc4N)cc3)[nH]c2c1=O | 48.8 |
| Cn1cc(-c2cc(C(C)(C)O)ccc2Oc2ccccc2)c2cc(C(=O)NCc3ccc(C(=O)Nc4ccccc4N)cc3)[nH]c2c1=O | 229 |
| Cn1cc(-c2cccc(Cl)c2)c2cc(C(=O)NCc3ccc(C(=O)Nc4ccccc4N)cc3)[nH]c2c1=O | 134 |
| CC(C)Oc1ccc(C(C)(C)O)cc1-c1cn(C)c(=O)c2[nH]c(C(=O)NCc3ccc(C(=O)NO)cc3)cc12 | 36 |
| Cn1cc(-c2ccccc2Oc2ccccc2)c2cc(C(=O)NCCCCCC(=O)NO)[nH]c2c1=O | 44.4 |

Target: T2, Protein deacetylase HDAC6 (Homo sapiens, UniProt Q9UBN7)
T2 sequence (Q9UBN7 whole entry): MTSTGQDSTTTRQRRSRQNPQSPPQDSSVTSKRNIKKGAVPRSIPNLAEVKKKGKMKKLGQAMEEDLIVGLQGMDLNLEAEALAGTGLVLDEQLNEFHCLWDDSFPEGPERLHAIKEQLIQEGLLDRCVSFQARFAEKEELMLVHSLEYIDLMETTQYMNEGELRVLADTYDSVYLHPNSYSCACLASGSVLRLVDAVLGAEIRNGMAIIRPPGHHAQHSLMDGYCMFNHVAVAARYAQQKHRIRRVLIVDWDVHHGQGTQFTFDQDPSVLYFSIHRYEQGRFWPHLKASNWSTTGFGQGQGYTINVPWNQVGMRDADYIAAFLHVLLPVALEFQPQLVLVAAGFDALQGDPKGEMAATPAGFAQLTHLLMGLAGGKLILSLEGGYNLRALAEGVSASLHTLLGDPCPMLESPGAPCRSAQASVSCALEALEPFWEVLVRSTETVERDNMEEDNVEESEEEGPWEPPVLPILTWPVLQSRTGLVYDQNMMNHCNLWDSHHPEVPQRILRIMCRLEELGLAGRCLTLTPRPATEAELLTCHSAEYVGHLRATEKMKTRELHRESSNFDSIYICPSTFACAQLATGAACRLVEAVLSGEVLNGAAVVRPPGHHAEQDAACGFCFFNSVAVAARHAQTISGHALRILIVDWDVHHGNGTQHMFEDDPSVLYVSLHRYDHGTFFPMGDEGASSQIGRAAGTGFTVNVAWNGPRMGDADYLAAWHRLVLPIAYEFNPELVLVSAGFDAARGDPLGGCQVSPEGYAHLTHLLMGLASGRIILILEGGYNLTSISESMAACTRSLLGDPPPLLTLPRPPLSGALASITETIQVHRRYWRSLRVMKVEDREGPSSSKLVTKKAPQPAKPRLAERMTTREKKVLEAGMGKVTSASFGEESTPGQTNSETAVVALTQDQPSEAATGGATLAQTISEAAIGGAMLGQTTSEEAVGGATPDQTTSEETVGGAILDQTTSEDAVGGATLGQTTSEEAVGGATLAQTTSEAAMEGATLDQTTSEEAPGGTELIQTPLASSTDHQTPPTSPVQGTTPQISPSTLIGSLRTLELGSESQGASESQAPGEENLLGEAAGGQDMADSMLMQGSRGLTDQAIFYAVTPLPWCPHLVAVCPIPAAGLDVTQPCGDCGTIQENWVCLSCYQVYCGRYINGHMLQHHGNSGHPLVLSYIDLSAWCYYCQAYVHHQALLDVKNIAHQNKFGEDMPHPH
Assay: Inhibition of HDAC6 (unknown origin) by fluorescence based assay
Conditions: not given

| SMILES | IC50 [nM] |
| --- | --- |
| Cn1cc(-c2cc(C(C)(C)O)ccc2Oc2ccc(F)cc2F)c2cc(C(=O)NCc3ccc(C(=O)NO)cc3)[nH]c2c1=O | 15.6 |
| CC(C)Oc1ccc(C(C)(C)O)cc1-c1cn(C)c(=O)c2[nH]c(C(=O)NCc3ccc(C(=O)NO)cc3)cc12 | 52 |
| Cn1cc(-c2ccccc2Oc2ccccc2)c2cc(C(=O)NCCCCCC(=O)NO)[nH]c2c1=O | 3.4 |

System: MV4-11
Assay: Antiproliferative activity against human MV4-11 cells assessed as cell viability after 72 hrs by CCK8 assay
Assay type: functional, cell-based
Conditions: MV4-11, 72 h

| SMILES | IC50 [nM] |
| --- | --- |
| COc1ccc(-c2cn(C)c(=O)c3[nH]c(C(=O)NCc4ccc(C(=O)Nc5ccccc5N)cc4)cc23)cc1 | 320 |
| Cn1cc(-c2cccc(C(C)(C)O)c2)c2cc(C(=O)NCc3ccc(C(=O)Nc4ccccc4N)cc3)[nH]c2c1=O | 2200 |
| Cn1cc(-c2cc(C(C)(C)O)ccc2Oc2ccc(F)cc2F)c2cc(C(=O)NCc3ccc(C(=O)NO)cc3)[nH]c2c1=O | 190 |
| Cn1cc(-c2cc(C(C)(C)O)ccc2Oc2ccccc2)c2cc(C(=O)NCc3ccc(C(=O)Nc4ccccc4N)cc3)[nH]c2c1=O | 100 |
| Cn1cc(-c2cccc(Cl)c2)c2cc(C(=O)NCc3ccc(C(=O)Nc4ccccc4N)cc3)[nH]c2c1=O | 190 |
| CC(C)Oc1ccc(C(C)(C)O)cc1-c1cn(C)c(=O)c2[nH]c(C(=O)NCc3ccc(C(=O)NO)cc3)cc12 | 350 |
| Cn1cc(-c2ccccc2Oc2ccccc2)c2cc(C(=O)NCCCCCC(=O)NO)[nH]c2c1=O | 610 |

Target: T1, Bromodomain-containing protein 4
Assay: Inhibition of His-tagged BRD4 bromodomain 2 (unknown origin) using [Lys (5,8,12,16) Ac] H4(1-21) as substrate by fluorescence based assay
Conditions: not given

| SMILES | IC50 [nM] |
| --- | --- |
| COc1ccc(-c2cn(C)c(=O)c3[nH]c(C(=O)NCc4ccc(C(=O)Nc5ccccc5N)cc4)cc23)cc1 | 61.2 |
| Cn1cc(-c2cccc(C(C)(C)O)c2)c2cc(C(=O)NCc3ccc(C(=O)Nc4ccccc4N)cc3)[nH]c2c1=O | 30 |
| Cn1cc(-c2cc(C(C)(C)O)ccc2Oc2ccc(F)cc2F)c2cc(C(=O)NCc3ccc(C(=O)NO)cc3)[nH]c2c1=O | 12.4 |
| Cn1cc(-c2ccc(C(F)(F)F)cc2)c2cc(C(=O)NCc3ccc(C(=O)Nc4ccccc4N)cc3)[nH]c2c1=O | 364 |
| Cn1cc(-c2ccccc2Cl)c2cc(C(=O)NCc3ccc(C(=O)Nc4ccccc4N)cc3)[nH]c2c1=O | 206 |
| Cn1cc(-c2cc(C(C)(C)O)ccc2Oc2ccccc2)c2cc(C(=O)NCc3ccc(C(=O)Nc4ccccc4N)cc3)[nH]c2c1=O | 3 |
| Cn1cc(-c2cccc(Cl)c2)c2cc(C(=O)NCc3ccc(C(=O)Nc4ccccc4N)cc3)[nH]c2c1=O | 158 |
| CC(C)Oc1ccc(C(C)(C)O)cc1-c1cn(C)c(=O)c2[nH]c(C(=O)NCc3ccc(C(=O)NO)cc3)cc12 | 10 |
| Cn1cc(-c2ccccc2Oc2ccccc2)c2cc(C(=O)NCCCCCC(=O)NO)[nH]c2c1=O | 3.8 |

Target: T1, Bromodomain-containing protein 4
Assay: Inhibition of His-tagged BRD4 bromodomain 1 (unknown origin) using [Lys (5,8,12,16) Ac] H4(1-21) as substrate by fluorescence based assay
Conditions: not given

| SMILES | IC50 [nM] |
| --- | --- |
| COc1ccc(-c2cn(C)c(=O)c3[nH]c(C(=O)NCc4ccc(C(=O)Nc5ccccc5N)cc4)cc23)cc1 | 40.5 |
| Cn1cc(-c2cccc(C(C)(C)O)c2)c2cc(C(=O)NCc3ccc(C(=O)Nc4ccccc4N)cc3)[nH]c2c1=O | 20 |
| Cn1cc(-c2cc(C(C)(C)O)ccc2Oc2ccc(F)cc2F)c2cc(C(=O)NCc3ccc(C(=O)NO)cc3)[nH]c2c1=O | 76.7 |
| Cn1cc(-c2ccc(C(F)(F)F)cc2)c2cc(C(=O)NCc3ccc(C(=O)Nc4ccccc4N)cc3)[nH]c2c1=O | 146 |
| Cn1cc(-c2ccccc2Cl)c2cc(C(=O)NCc3ccc(C(=O)Nc4ccccc4N)cc3)[nH]c2c1=O | 102 |
| Cn1cc(-c2cc(C(C)(C)O)ccc2Oc2ccccc2)c2cc(C(=O)NCc3ccc(C(=O)Nc4ccccc4N)cc3)[nH]c2c1=O | 13.4 |
| Cn1cc(-c2cccc(Cl)c2)c2cc(C(=O)NCc3ccc(C(=O)Nc4ccccc4N)cc3)[nH]c2c1=O | 65.5 |
| CC(C)Oc1ccc(C(C)(C)O)cc1-c1cn(C)c(=O)c2[nH]c(C(=O)NCc3ccc(C(=O)NO)cc3)cc12 | 31.3 |
| Cn1cc(-c2ccccc2Oc2ccccc2)c2cc(C(=O)NCCCCCC(=O)NO)[nH]c2c1=O | 21.4 |
